# Measurements reported in patent US10188648B2, “Solid state forms of selexipag” (TEVA PHARMACEUTICALS INTERNATIONAL GMBH, priority 2015, dated 2019).
# Experiment: solubility in aqueous medium at pH=6.7
# Assay type: physicochemical
Structure (SMILES),"solubility in aqueous medium in comparison with Form I of U.S. Pat. No. 8,791,122 (comparison with Form I)",solubility in aqueous medium
"CC(C)N(CCCCOCC(=O)NS(C)(=O)=O)c1cnc(-c2ccccc2)c(-c2ccccc2)n1 [Form IV of Selexipag, 2-{4-[(5,6-diphenylpyrazin-2-yl)(isopropyl)amino]butoxy}-N-(methylsulfonyl)acetamide]",enhanced solubility,–
"CC(C)N(CCCCOCC(=O)NS(C)(=O)=O)c1cnc(-c2ccccc2)c(-c2ccccc2)n1 [Selexipag Form I, 2-{4-[(5,6-diphenylpyrazin-2-yl)(isopropyl)amino]butoxy}-N-(methylsulfonyl)acetamide]",–,practically insoluble
